Values of other authors in patent publication US20190160002A1, “PROCESS FOR PREPARING STERILE ARIPIPRAZOLE FORMULATION” (Mylan Laboratories Ltd., priority 2016, published 2019).

Effect of dry heat sterilization (dry heat sterilization): melted | Effect of gamma-ray and electron beam sterilization (gamma-ray and electron beam): discolored and decomposed | Effect of steam heat sterilization on particles (particles in aqueous suspension, steam heat sterilization): tend to agglomerate
Compound: O=C1CCc2ccc(OCCCCN3CCN(c4cccc(Cl)c4Cl)CC3)cc2N1 [aripiprazole monohydrate]
